≈ marks a conversion by molar mass, not a printed value. Read-outs that look alike come from different tables or passages of the source.
Columns and labels:
Assay in all cases: In vitro antibacterial spectrum, agar plate dilution (MIC)
Type in all cases: cell-based
Citrobacter diversus = settings: Citrobacter koseri; Citrobacter diversus K 82-24; Mueller-Hinton agar, 10^4 CFU, 18 h, 35° C
Procedure: (§1) The in vitro antimicrobial spectrum of the compounds of the invention were determined by the agar plate dilution method with Mueller-Hinton agar and an inoculum of each test organism of approximately 10^4 colony forming units delivered by the Steers replicating device. The minimal inhibitory concentration (MIC) in mcg/ml is defined as the lowest concentration of test compound that inhibited visible growth after 18 hours incubation at 35° C.

Enterobacter cloacae = settings: 18 h, 10^4 CFU, 35° C
Procedure: as §1

Escherichia coli = settings: 10^4 CFU, 35° C
Procedure: as §1

Klebsiella nneumoniae = settings: Mueller-Hinton agar, 10^4 CFU, 18 h, 35° C
Procedure: as §1

Morganella morganii = settings: 18 h, 10^4 CFU, 35° C
Procedure: as §1

Proteus rettgeri = settings: Providencia rettgeri; Proteus rettgeri IO 83-21; Mueller-Hinton agar, 10^4 CFU, 18 h, 35° C
Procedure: as §1

Providencia stuartii = Providencia stuartii CMC 83-3; Mueller-Hinton agar, 10^4 CFU, 18 h, 35° C
Procedure: as §1

Pseudomonas aeruginosa = settings: Mueller-Hinton agar, 10^4 CFU, 18 h, 35° C
Procedure: as §1

Serratia marcescens = settings: 18 h, 10^4 CFU, 35° C
Procedure: as §1

Staphylococcus aureus = settings: Mueller-Hinton agar, 10^4 CFU, 18 h, 35° C
Procedure: as §1

Streptococcus faecalis = settings: Mueller-Hinton agar, 10^4 CFU, 18 h, 35° C
Procedure: as §1

CN1CCN(c2cc3c(cc2F)c(=O)c(C(=O)O)c2ccccn23)CC1 [Example 6, 8-Fluoro-9-(4-methyl-1-piperazinyl)-6-oxo-6H-benzo[c]quinolizine-5-carboxylic acid]
MIC (Citrobacter diversus): 4 µg/mL (≈ 11.3 µM) | MIC (Enterobacter cloacae; Enterobacter cloacae K 84-10, Mueller-Hinton agar): 2 µg/mL (≈ 5.63 µM) | MIC (Enterobacter cloacae; Enterobacter cloacae MOR 84-30, Mueller-Hinton agar): 16 µg/mL (≈ 45 µM) | MIC (Enterobacter cloacae; Enterobacter cloacae VGH 84-39, Mueller-Hinton agar): 2 µg/mL (≈ 5.63 µM) | MIC (Escherichia coli; 18 h, Escherichia coli CMC 84-50, Mueller-Hinton agar): 2 µg/mL (≈ 5.63 µM) | MIC (Escherichia coli; 18 h, Escherichia coli D 21, Mueller-Hinton agar): 4 µg/mL (≈ 11.3 µM) | MIC (Escherichia coli; 18 h, Escherichia coli D 22, Mueller-Hinton agar): 2 µg/mL (≈ 5.63 µM) | MIC (Escherichia coli; 18 h, Escherichia coli MOR 84-20, Mueller-Hinton agar): 2 µg/mL (≈ 5.63 µM) | MIC (Escherichia coli; 18 h, Escherichia coli VGH 84-19, Mueller-Hinton agar): 4 µg/mL (≈ 11.3 µM) | MIC (Escherichia coli; ATCC25922, 18 h, Escherichia coli ATCC 25922, Mueller-Hinton agar): 4 µg/mL (≈ 11.3 µM) | MIC (Klebsiella nneumoniae; Klebsiella nneumoniae IO 83-5): 8 µg/mL (≈ 22.5 µM) | MIC (Klebsiella nneumoniae; Klebsiella nneumoniae MOR 84-24, read-out: MIC): 8 µg/mL (≈ 22.5 µM) | MIC (Klebsiella nneumoniae; Klebsiella oneumoniae CMC 84-31): 8 µg/mL (≈ 22.5 µM) | MIC (Morganella morganii; Morganella morganii CMC 84-38, Mueller-Hinton agar): 0.5 µg/mL (≈ 1.41 µM) | MIC (Morganella morganii; Morganella morganii VGH 84-12, Mueller-Hinton agar): 4 µg/mL (≈ 11.3 µM) | MIC (Morganella morganii; Moroanella morganii MOR 84-45, Mueller-Hinton agar): 0.5 µg/mL (≈ 1.41 µM) | MIC (Proteus rettgeri): 1 µg/mL (≈ 2.81 µM) | MIC (Providencia stuartii): > 16 µg/mL | MIC (Pseudomonas aeruginosa; Pseudomonas aeruginosa CMC 83-20): > 16 µg/mL | MIC (Pseudomonas aeruginosa; Pseudomonas aeruginosa K 84-16, read-out: MIC): > 16 µg/mL | MIC (Pseudomonas aeruginosa; Pseudomonas aeruginosa VGH 84-3): > 16 µg/mL | MIC (Serratia marcescens; Serratia marcescens CMC 83-74, Mueller-Hinton agar): > 16 µg/mL | MIC (Serratia marcescens; Serratia marcescens IO 83-63, Mueller-Hinton agar): 4 µg/mL (≈ 11.3 µM) | MIC (Serratia marcescens; Serratia marcescens MOR 84-41, Mueller-Hinton agar): 2 µg/mL (≈ 5.63 µM) | MIC (Staphylococcus aureus; ATCC25913, Staphylococcus aureus ATCC 25913, read-out: MIC): > 16 µg/mL | MIC (Staphylococcus aureus; Staphylococcus aureus CMC 83-131): > 16 µg/mL | MIC (Staphylococcus aureus; Staphylococcus aureus K 82-26): > 16 µg/mL | MIC (Staphylococcus aureus; Staphylococcus aureus VGH 84-47, read-out: MIC): > 16 µg/mL | MIC (Streptococcus faecalis; Enterococcus faecalis, Streptococcus faecalis VCI 85-30, read-out: MIC): > 16 µg/mL | MIC (Streptococcus faecalis; Streptococcus faecalis CMC 83-120): > 16 µg/mL | MIC (Streptococcus faecalis; Streptococcus faecalis VGH 84-69): > 16 µg/mL

From patent publication US4923868A, “8-fluoro and 7,8,10-trifluoro-9-(substituted)-6-oxo-6H-benzo(C)quinolizine-5-carboxyl ic acids” (American Cyanamid Company, priority 1989, dated 1990)
